“And” between values parts separate entries of the source, which are not always exact repeats. Equal entries are not always repeated. Toxic doses and inconclusive results are not listed.

This experiment has as its system P388 leukemia ip, CD2F1 mice, survival T/C. Briefly: NCI In Vivo Anticancer Drug Screen. Data for tumor model P388 Leukemia (intraperitoneal) in CD2F1 (CDF1) mice. The settings on record: endpoint: median survival time, higher = longer survival. Summed up:
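Mice carrying the transplanted tumor received test compound or vehicle. Survival was recorded in each group, and the value is the treated-group measurement divided by that of the vehicle-treated control group.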

[1] abbreviates: dose: 100.0 mg/kg/injection, schedule: Q01DX009 (ip), vehicle: saline with Tween-80.
The mark [2] stands for this setting: dose: 200.0 mg/kg/injection, schedule: Q01DX009 (ip), vehicle: saline with Tween-80.
The mark [3] stands for this setting: dose: 50.0 mg/kg/injection, schedule: Q01DX005 (ip), vehicle: saline with Tween-80.
[4] abbreviates: dose: 100.0 mg/kg/injection, schedule: Q01DX005 (ip), vehicle: saline with Tween-80.
The mark [5] stands for this setting: dose: 200.0 mg/kg/injection, schedule: Q01DX005 (ip), vehicle: saline with Tween-80.
Where [6] appears, read: dose: 25.0 mg/kg/injection, schedule: Q01DX009 (ip), vehicle: saline with Tween-80.
Where [7] appears, read: dose: 50.0 mg/kg/injection, schedule: Q01DX009 (ip), vehicle: saline with Tween-80.
[8] abbreviates: dose: 25.0 mg/kg/injection, schedule: Q01DX005 (ip), vehicle: saline with Tween-80.

Consider `O=C(O)O`, for which the T/C was 102 % of control (dose: 25.0 mg/kg/injection, schedule: Q01DX009 (ip), vehicle: saline); 94 % of control and 93 % of control (dose: 50.0 mg/kg/injection, schedule: Q01DX009 (ip), vehicle: saline); 100 % of control under setting [1]; 99 % of control and 95 % of control (dose: 100.0 mg/kg/injection, schedule: Q01DX009 (ip), vehicle: saline); 95 % of control under setting [2]; 98 % of control and 102 % of control (dose: 200.0 mg/kg/injection, schedule: Q01DX009 (ip), vehicle: saline). For the same compound, the T/C by setting is: (dose: 200.0 mg/kg/injection, schedule: Q04DX003 (ip), vehicle: saline sonified) 100 % of control; (dose: 0.25 % in 0.5 ml injection vol, schedule: Q01DX009 (ip), vehicle: water) 98 % of control; (dose: 400.0 mg/kg/injection, schedule: Q04DX003 (ip), vehicle: saline sonified) 100 % of control; (dose: 0.5 % in 0.5 ml injection vol, schedule: Q01DX009 (ip), vehicle: water) 100 % of control; (dose: 1.0 % in 0.5 ml injection vol, schedule: Q01DX009 (ip), vehicle: water) 102 % of control; (dose: 4.0 % in 0.5 ml injection vol, schedule: Q01DX009 (ip), vehicle: water) 100 % of control and 102 % of control. The T/C (dose: 8.0 % in 0.5 ml injection vol, schedule: Q01DX009 (ip), vehicle: water) is 99 % of control and 95 % of control.
As to `CC(C)N=C1CCCC1C(=S)SSC(=S)C1CCCC1=NC(C)C` (centres undefined), the T/C is 99 % of control (dose: 50.0 mg/kg/injection, schedule: Q01DX009 (ip), vehicle: Klucel (hydroxypropylcellulose) (HPC)); 99 % of control (dose: 100.0 mg/kg/injection, schedule: Q01DX009 (ip), vehicle: Klucel (hydroxypropylcellulose) (HPC)); 100 % of control (dose: 200.0 mg/kg/injection, schedule: Q01DX009 (ip), vehicle: Klucel (hydroxypropylcellulose) (HPC)).
For `C/C(=N/O)C1CCC(C2CCCC(C3CCCCC3)C2)CC1` (centres undefined), the T/C reads like this: under setting [3], 94 % of control; under setting [4], 94 % of control; under setting [5], 93 % of control.
In the case of `OCC1OC(n2cnc3cc(Cl)c(Cl)cc32)C(O)C1O` (centres undefined), the T/C is 96 % of control (dose: 8.0 mg/kg/injection, schedule: Q03HX024 (ip), vehicle: saline with Tween-80); 99 % of control (dose: 16.0 mg/kg/injection, schedule: Q03HX024 (ip), vehicle: saline with Tween-80); 95 % of control (dose: 20.0 mg/kg/injection, schedule: Q04DX003 (ip), vehicle: other); 103 % of control (dose: 20.0 mg/kg/injection, schedule: Q04DX003 (oral), vehicle: other); 93 % of control under setting [6]; 114 % of control and 116 % of control (dose: 32.0 mg/kg/injection, schedule: Q03HX024 (ip), vehicle: saline with Tween-80). In addition, the T/C is 100 % of control (dose: 40.0 mg/kg/injection, schedule: Q04DX003 (ip), vehicle: other); 100 % of control (dose: 40.0 mg/kg/injection, schedule: Q04DX003 (oral), vehicle: other); 106 % of control under setting [7]; 95 % of control (dose: 80.0 mg/kg/injection, schedule: Q04DX003 (ip), vehicle: other); 103 % of control (dose: 80.0 mg/kg/injection, schedule: Q04DX003 (oral), vehicle: other); 123 % of control under setting [1]. The T/C is 110 % of control (dose: 160.0 mg/kg/injection, schedule: Q04DX003 (ip), vehicle: other); 100 % of control (dose: 160.0 mg/kg/injection, schedule: Q04DX003 (oral), vehicle: other); 160 % of control under setting [2]; 119 % of control (dose: 320.0 mg/kg/injection, schedule: Q04DX003 (ip), vehicle: other); 107 % of control (dose: 320.0 mg/kg/injection, schedule: Q04DX003 (oral), vehicle: other); 100 % of control (dose: 640.0 mg/kg/injection, schedule: Q04DX003 (oral), vehicle: other).
`Nc1ccc2nc(-c3ccccc3)c(=O)oc2c1`: the T/C is 97 % of control (dose: 60.0 mg/kg/injection, schedule: Q01DX005 (ip), vehicle: saline with Tween-80) and 98 % of control (dose: 120.0 mg/kg/injection, schedule: Q01DX005 (ip), vehicle: saline with Tween-80).
In the case of `N#CCCOCN(COCCC#N)c1nc(N(COCCC#N)COCCC#N)nc(N(COCCC#N)COCCC#N)n1`, the T/C (dose: 7.5 mg/kg/injection, schedule: Q01DX005 (ip), vehicle: DMSO) was 97 % of control; the T/C (dose: 15.0 mg/kg/injection, schedule: Q01DX005 (ip), vehicle: DMSO) was 94 % of control; the T/C (dose: 30.0 mg/kg/injection, schedule: Q01DX005 (ip), vehicle: DMSO) is 94 % of control.
`COC(=O)C1=CN2CCc3c([nH]c4ccccc34)C2(C)C2CN3CCc4c([nH]c5ccccc45)C3CC12` (centres undefined): the T/C by setting is: (dose: 2.25 mg/kg/injection, schedule: Q01DX009 (ip), vehicle: Klucel (hydroxypropylcellulose) (HPC)) 98 % of control; (dose: 4.5 mg/kg/injection, schedule: Q01DX009 (ip), vehicle: Klucel (hydroxypropylcellulose) (HPC)) 106 % of control; (dose: 9.0 mg/kg/injection, schedule: Q01DX009 (ip), vehicle: Klucel (hydroxypropylcellulose) (HPC)) 113 % of control; (dose: 18.0 mg/kg/injection, schedule: Q01DX009 (ip), vehicle: Klucel (hydroxypropylcellulose) (HPC)) 92 % of control; (dose: 36.0 mg/kg/injection, schedule: Q01DX009 (ip), vehicle: Klucel (hydroxypropylcellulose) (HPC)) 98 % of control.
Take `COC/C(=N/Nc1ccc([N+](=O)[O-])cc1[N+](=O)[O-])c1ccccc1`: the T/C runs as follows: (dose: 100.0 mg/kg/injection, schedule: Q04DX003 (ip), vehicle: saline with Tween-80) 109 % of control; (dose: 200.0 mg/kg/injection, schedule: Q04DX003 (ip), vehicle: saline with Tween-80) 109 % of control; (dose: 400.0 mg/kg/injection, schedule: Q04DX003 (ip), vehicle: saline with Tween-80) 90 % of control.
Consider `COc1nc(N=[N+]=[N-])nc(-c2c(OC)ccc3ccccc23)n1`, for which the T/C was 105 % of control under setting [8], 96 % of control under setting [3], 89 % of control under setting [4] and 89 % of control under setting [5].
`NS(=O)(=O)c1ccc(Nc2c3ccccc3nc3c([N+](=O)[O-])cccc23)cc1`: the T/C reads like this: (dose: 15.0 mg/kg/injection, schedule: Q01DX005 (ip), vehicle: saline with Tween-80) 97 % of control; (dose: 30.0 mg/kg/injection, schedule: Q01DX005 (ip), vehicle: saline with Tween-80) 90 % of control; (dose: 240.0 mg/kg/injection, schedule: Q01DX005 (ip), vehicle: saline with Tween-80) 88 % of control.
Turning to `COC(=O)c1cc2cccn2cn1`, the T/C (dose: 12.5 mg/kg/injection, schedule: Q01DX009 (ip), vehicle: saline with Tween-80) is 115 % of control; the T/C under setting [6] was 115 % of control; the T/C under setting [7] was 104 % of control; the T/C under setting [1] was 91 % of control; the T/C under setting [2] was 100 % of control.
Consider `CN1Cc2ccccc2[C@H]2C(c3ccccc3)=NN(c3ccccc3)[C@H]21`, for which the T/C was 103 % of control under setting [3], 94 % of control under setting [4] and 92 % of control under setting [5].
In the case of `CC1(O)C=CC(=O)C=C1`, the T/C reads like this: (dose: 1.56 mg/kg/injection, schedule: Q01DX009 (ip), vehicle: distilled water + Tween-80) 103 % of control; (dose: 3.13 mg/kg/injection, schedule: Q01DX009 (ip), vehicle: distilled water + Tween-80) 102 % of control; (dose: 6.25 mg/kg/injection, schedule: Q01DX009 (ip), vehicle: distilled water + Tween-80) 109 % of control; (dose: 12.5 mg/kg/injection, schedule: Q01DX009 (ip), vehicle: distilled water + Tween-80) 109 % of control.
With `CC1(C)SC(C)(C)N2C(=O)[C@H]3N(C(=O)[C@@H]21)C(C)(C)SC3(C)C`, the T/C by setting is: (dose: 12.5 mg/kg/injection, schedule: Q01DX005 (ip), vehicle: saline with Tween-80) 100 % of control; under setting [8], 94 % of control; under setting [3], 99 % of control and 91 % of control; under setting [4], 94 % of control; under setting [5], 97 % of control.
